Results from PubChem BioAssay AID248 (DTP/NCI, 2004).
“And” between values parts separate entries of the source, which are not always exact repeats. Identical values can stand only once. Toxic doses and inconclusive results are not listed. Rule as the data show it: active = T/C of 150% or more; inactive = T/C below 125%.

Tested on: L1210 leukemia ip in BDF1 mice, survival T/C
Experiment: NCI In Vivo Anticancer Drug Screen. Data for tumor model L1210 Leukemia (intraperitoneal) in B6D2F1 (BDF1) mice
Details: endpoint: mean survival time, higher = longer survival
How it was run: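 Mice bearing the transplanted tumor received compound or vehicle. Survival of the treated group was divided by that of the vehicle-treated control group to give the ratio.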

[1] = dose: 100.0 mg/kg/injection, schedule: Q04DX002 (ip), vehicle: Klucel (hydroxypropylcellulose) (HPC)
[2] = dose: 100.0 mg/kg/injection, schedule: Q01DX009 (ip), vehicle: Klucel (hydroxypropylcellulose) (HPC)
[3] = dose: 200.0 mg/kg/injection, schedule: Q01DX009 (ip), vehicle: Klucel (hydroxypropylcellulose) (HPC)
[4] = dose: 400.0 mg/kg/injection, schedule: Q01DX009 (ip), vehicle: Klucel (hydroxypropylcellulose) (HPC)
[5] = dose: 100.0 mg/kg/injection, schedule: Q01DX009 (ip), vehicle: saline with Tween-80
[6] = dose: 200.0 mg/kg/injection, schedule: Q01DX009 (ip), vehicle: saline with Tween-80
[7] = dose: 400.0 mg/kg/injection, schedule: Q01DX009 (ip), vehicle: saline with Tween-80
[8] = dose: 100.0 mg/kg/injection, schedule: Q04DX002 (ip), vehicle: saline with Tween-80
[9] = dose: 200.0 mg/kg/injection, schedule: Q04DX002 (ip), vehicle: saline with Tween-80
[10] = dose: 400.0 mg/kg/injection, schedule: Q04DX002 (ip), vehicle: saline with Tween-80

Measured: T/C

Clc1ccc(C(c2ccc(Cl)cc2)C(Cl)(Cl)Cl)cc1
inactive: dose: 12.0 mg/kg/injection, schedule: Q01DX009 (ip), vehicle: saline 95 % of control | dose: 12.5 mg/kg/injection, schedule: Q01DX009 (ip), vehicle: acetone 97 % of control | dose: 25.0 mg/kg/injection, schedule: Q01DX009 (ip), vehicle: Klucel (hydroxypropylcellulose) (HPC) 90 % of control | dose: 25.0 mg/kg/injection, schedule: Q01DX009 (ip), vehicle: acetone 93 % of control | dose: 25.0 mg/kg/injection, schedule: Q01DX009 (ip), vehicle: saline 92 % of control | dose: 50.0 mg/kg/injection, schedule: Q01DX009 (ip), vehicle: Klucel (hydroxypropylcellulose) (HPC) 92 % of control | dose: 50.0 mg/kg/injection, schedule: Q01DX009 (ip), vehicle: acetone 100 % of control and 86 % of control | dose: 100.0 mg/kg/injection, schedule: Q01DX001 (ip), vehicle: acetone 93 % of control | dose: 100.0 mg/kg/injection, schedule: Q01DX009 (ip), vehicle: acetone 94 % of control | dose: 200.0 mg/kg/injection, schedule: Q01DX001 (ip), vehicle: acetone 87 % of control | dose: 200.0 mg/kg/injection, schedule: Q01DX001 (ip), vehicle: saline 90 % of control | dose: 200.0 mg/kg/injection, schedule: Q01DX009 (ip), vehicle: acetone 97 % of control | dose: 400.0 mg/kg/injection, schedule: Q01DX001 (ip), vehicle: acetone 92 % of control | dose: 800.0 mg/kg/injection, schedule: Q01DX001 (ip), vehicle: acetone 88 % of control | dose: 800.0 mg/kg/injection, schedule: Q01DX001 (ip), vehicle: saline 87 % of control

CC(C)C(=O)NC1CCCCC1
inactive: dose: 25.0 mg/kg/injection, schedule: Q04DX002 (ip), vehicle: Klucel (hydroxypropylcellulose) (HPC) 111 % of control | dose: 50.0 mg/kg/injection, schedule: Q04DX002 (ip), vehicle: Klucel (hydroxypropylcellulose) (HPC) 111 % of control | [1] 101 % of control

C(Cc1ccccc1)=C(CCc1ccccc1)CCc1ccccc1
inactive: dose: 100.0 mg/kg/injection, schedule: Q01DX001 (ip), vehicle: saline with Tween-80 104 % of control | dose: 200.0 mg/kg/injection, schedule: Q01DX001 (ip), vehicle: saline with Tween-80 93 % of control | dose: 400.0 mg/kg/injection, schedule: Q01DX001 (ip), vehicle: saline with Tween-80 93 % of control

S=C(NCc1cccc2ccccc12)Nc1ccccc1
inactive: [2] 95 % of control | [3] 97 % of control | [4] 104 % of control

CCOc1ccccc1NC(=O)Nc1ccc(Cl)cc1
inactive: [2] 97 % of control | dose: 100.0 mg/kg/injection, schedule: Q04DX003 (ip), vehicle: Klucel (hydroxypropylcellulose) (HPC) 100 % of control | [3] 103 % of control | dose: 200.0 mg/kg/injection, schedule: Q04DX003 (ip), vehicle: Klucel (hydroxypropylcellulose) (HPC) 96 % of control | [4] 101 % of control | dose: 400.0 mg/kg/injection, schedule: Q04DX003 (ip), vehicle: Klucel (hydroxypropylcellulose) (HPC) 100 % of control

CC[C@@]1(O)C(=O)OCc2c1cc1n(c2=O)Cc2cc3cc(O)ccc3nc2-1
inactive: dose: 2.0 mg/kg/injection, schedule: Q01DX001 (ip), vehicle: saline 111 % of control | dose: 2.0 mg/kg/injection, schedule: Q01DX009 (oral), vehicle: saline 105 % of control and 108 % of control | dose: 3.0 mg/kg/injection, schedule: Q01DX009 (oral), vehicle: saline 114 % of control and 115 % of control | dose: 7.0 mg/kg/injection, schedule: Q01DX009 (oral), vehicle: saline 101 % of control and 120 % of control | dose: 10.0 mg/kg/injection, schedule: Q01DX009 (oral), vehicle: saline 121 % of control | dose: 15.0 mg/kg/injection, schedule: Q01DX009 (oral), vehicle: saline 115 % of control | dose: 16.0 mg/kg/injection, schedule: Q01DX001 (ip), vehicle: saline 88 % of control | dose: 12.0 micrograms/kg/injection, schedule: Q01DX015 (ip), vehicle: saline 113 % of control | dose: 19.0 micrograms/kg/injection, schedule: Q01DX015 (ip), vehicle: saline 111 % of control | dose: 29.0 micrograms/kg/injection, schedule: Q01DX015 (ip), vehicle: saline 118 % of control | dose: 44.0 micrograms/kg/injection, schedule: Q01DX015 (ip), vehicle: saline 120 % of control
active: dose: 0.15 mg/kg/injection, schedule: Q01DX015 (ip), vehicle: saline 151 % of control | dose: 0.22 mg/kg/injection, schedule: Q01DX015 (ip), vehicle: saline 157 % of control | dose: 0.34 mg/kg/injection, schedule: Q01DX015 (ip), vehicle: saline 165 % of control | dose: 0.51 mg/kg/injection, schedule: Q01DX015 (ip), vehicle: saline 233 % of control | dose: 0.77 mg/kg/injection, schedule: Q01DX015 (ip), vehicle: saline 157 % of control | dose: 1.0 mg/kg/injection, schedule: Q01DX009 (ip), vehicle: saline 185 % of control | dose: 1.16 mg/kg/injection, schedule: Q01DX015 (ip), vehicle: saline 161 % of control | dose: 1.75 mg/kg/injection, schedule: Q01DX015 (ip), vehicle: saline 177 % of control | dose: 2.0 mg/kg/injection, schedule: Q01DX009 (ip), vehicle: saline 229 % of control | dose: 4.0 mg/kg/injection, schedule: Q01DX001 (ip), vehicle: saline 164 % of control | dose: 8.0 mg/kg/injection, schedule: Q01DX001 (ip), vehicle: saline 242 % of control | dose: 100.0 micrograms/kg/injection, schedule: Q01DX015 (ip), vehicle: saline 150 % of control

CCCCCCCCCCCCCCCCCC(=O)NCCCNC(=O)CCCCCCCCCCCCCCCCC
inactive: dose: 75.0 mg/kg/injection, schedule: Q01DX001 (ip), vehicle: saline 98 % of control | dose: 150.0 mg/kg/injection, schedule: Q01DX001 (ip), vehicle: saline 95 % of control | dose: 300.0 mg/kg/injection, schedule: Q01DX001 (ip), vehicle: saline 106 % of control

O=C(Nc1cccc(F)c1)Nc1ncccn1
inactive: [5] 90 % of control | [6] 86 % of control | [7] 100 % of control

CC(CO)NC(=O)c1ccc(N)cc1 (centres undefined)
inactive: dose: 100.0 mg/kg/injection, schedule: Q04DX003 (ip), vehicle: saline 107 % of control | dose: 200.0 mg/kg/injection, schedule: Q04DX003 (ip), vehicle: saline 100 % of control | dose: 400.0 mg/kg/injection, schedule: Q04DX003 (ip), vehicle: saline 102 % of control

NN1Cc2ccc3c4c(ccc(c24)C1)C=C3
inactive: dose: 15.0 mg/kg/injection, schedule: Q01DX001 (ip), vehicle: carboxymethylcellulose (CMC) 108 % of control | dose: 30.0 mg/kg/injection, schedule: Q01DX001 (ip), vehicle: carboxymethylcellulose (CMC) 97 % of control | dose: 60.0 mg/kg/injection, schedule: Q01DX001 (ip), vehicle: carboxymethylcellulose (CMC) 101 % of control

CN1Cc2ccccc2/C=C\c2ccccc21
inactive: [1] 103 % of control | dose: 200.0 mg/kg/injection, schedule: Q04DX002 (ip), vehicle: Klucel (hydroxypropylcellulose) (HPC) 106 % of control | dose: 400.0 mg/kg/injection, schedule: Q04DX002 (ip), vehicle: Klucel (hydroxypropylcellulose) (HPC) 100 % of control

N#CSCc1ccccc1Cl
inactive: dose: 6.25 mg/kg/injection, schedule: Q04DX003 (ip), vehicle: Klucel (hydroxypropylcellulose) (HPC) 104 % of control | dose: 12.5 mg/kg/injection, schedule: Q04DX003 (ip), vehicle: Klucel (hydroxypropylcellulose) (HPC) 104 % of control | dose: 25.0 mg/kg/injection, schedule: Q04DX003 (ip), vehicle: Klucel (hydroxypropylcellulose) (HPC) 93 % of control | dose: 50.0 mg/kg/injection, schedule: Q04DX003 (ip), vehicle: Klucel (hydroxypropylcellulose) (HPC) 96 % of control

O=C(NCCO)Nc1cccc2c1CCCC2
inactive: [8] 108 % of control | [9] 104 % of control | [10] 87 % of control

O=C(c1ccccc1)C(SC(=S)OCc1ccccc1)c1ccccc1 (centres undefined)
inactive: dose: 25.0 mg/kg/injection, schedule: Q01DX009 (ip), vehicle: saline with Tween-80 98 % of control | dose: 50.0 mg/kg/injection, schedule: Q01DX009 (ip), vehicle: saline with Tween-80 100 % of control | [5] 96 % of control

C=NCC#N
inactive: [5] 91 % of control | [6] 91 % of control | [7] 93 % of control

O=C(CCl)N1CCC(C(O)c2cc3ccccc3n2S(=O)(=O)c2ccccc2)CC1 (centres undefined)
inactive: [8] 94 % of control | [9] 94 % of control | [10] 97 % of control
